# “Also recorded” adds a separate entry of the source. Where two headings read alike, the source gives them in different places.
# What was measured:
# [1] = β-lap release from polymer millirods in PBS; format: physicochemical; conditions: fabrication and controlled release
# LNCaP = assay: TUNEL apoptosis assay; format: cell-based, human; conditions: for Apoptosis (%) After Drug Treatment: 10 μM, 4h
# CC-10 tumor cell lines = assay: lethality and apoptosis of NSCLC cells; format: cell-based, mouse
# From the text: (§1) PARP cleavage to a 60 kDa fragment and specific p53 proteolysis are diagnostic for β-lap-induced μ-calpain-mediated apoptosis.
# [2] = tested on: MDA-MB-468 NQO1+ human breast cancer xenografts; assay: antitumor activity against xenografts; format: in vivo, athymic nude mice; conditions: for antitumor activity: 55-70 mg/kg i.p. every other day
# Method: Athymic nude mice bearing […] tumors were treated with the indicated mg/mk doses of β-lap i.p. every other day, beginning at day 26.
# When tumor volumes reached 20-30 mm^3 (at day 26), mice were then treated (by intraperitoneal injection) every other day with the indicated doses (in mg/kg) of β-lap (55-70 mg/kg were tested). […] Multiple cycles of treatments are now being tested, as are various dose regimen and scheduling protocols.
# [3] = tested on: normal fresh or proliferating human PBMC; conditions: cited from earlier work
# [4] = tested on: NQO1-expressing LNCaP clone (LN-NQ Cl 1-4, 10); assay: apoptosis in transfected LNCaP clones; format: cell-based, human; conditions: 10 μM β-lap
# From the text: (§2) LNCaP cells were transfected with either pcDNA3 empty vector or pcDNA3 containing full-length NQO1 cDNA.
# [5] = tested on: LNCaP vector alone clones; assay: apoptosis in transfected LNCaP clones; format: cell-based, human; conditions: 10 μM β-lap
# From the text: as §2
# athymic nude mice = assay: maximum tolerated dose in athymic nude mice; format: in vivo, mouse
# Method: MDA_MB-468 NQO1+ Tumor (468) cells were injected into the right and left flanks of 18-20 gm athymic nude mice and tumors of 20-50 mm^3 volume were allowed to grow in 20-30 days. When tumor volumes reached 20-30 mm^3 (at day 26), mice were then treated (by intraperitoneal injection) every other day with the indicated doses (in mg/kg) of β-lap (55-70 mg/kg were tested). The maximum tolerated dose of β-lap in athymic nude mice was determined to be […]). Ten (10) β-lap doses were given every other day, and data are shown for only one cycle of β-lap treatment. Multiple cycles of treatments are now being tested, as are various dose regimen and scheduling protocols.
# β-lap bioavailability and antitumor activity. To show efficacy of β-lap in vivo, a systemic delivery system was developed for this water-insoluble drug. β-Lap complexes with β-hydroxypropyl-β-cyclodextrin (HP-β-CD) that dissolves the drug and makes it bioavailable. The toxicity of HP-β-CD.β-lap in 18-20 gm athymic nude mice was examined and the maximum tolerated dose (MTD) was ˜75 mg/kg. […] We tested the effects of β-lap administered i.p. in athymic nude mice bearing NQO1^+ MDA-MB-468 (468) human breast cancer xenografts.
# L1C2 cells = format: cell-based; conditions: 4 μM, 4 h
# From the text: as §1
# [6] = tested on: Lewis lung carcinoma (LLC); format: cell-based; conditions: 4 μM, 4 h
# From the text: as §1
# A549 NSCLC cells = assay: survival and apoptosis (PARP cleavage) of NSCLC cells; format: cell-based, human; conditions: 8 μM β-lap, 4 h
# From the text: NQO1-dependent apoptosis of A549 or CC-10 NSCLC cells by β-lap.
# DU-145 cells = assay: survival / lethality of CaP cells; format: cell-based, human
# DU-145 = assay: TUNEL apoptosis assay; format: cell-based, human; conditions: 10 μM, 4h, TUNEL 48h
# C57Blk/6 mice = assay: animal toxicity study (morbidity and mortality); format: in vivo, mouse; conditions: HPβ-CD inclusion complex vs Cremophor vehicle, from LD50
# Method: C57Blk/6 female mice (3-4 week-old, 18-20 g) (Jackson Labs, Me.) were used to study the morbidity and mortality of mice treated with HPβ-CD.β-lap inclusion complex. Four mice per group were used for each dose, which varied from 20 to 100 mg/kg. […] Mice were injected (i.p.) every Monday, Wednesday and Friday for three weeks for a total of 10 injections. Control animals (4 mice/group) were injected with 5000 mg/kg of HPβ-CD alone to evaluate its toxicity. This HPβ-CD dose is approximately ten times of the HPβ-CD amount introduced at the highest dose of β-lap (100 mg/kg) via the HPβ-CD.β-lap inclusion complex. The higher dose of HPβ-CD was used to ensure the lack of toxicity of this compound. Weight and lethality were measured on a daily basis following initial drug administration. All animals were maintained in a facility accredited by the Association for Assessment and Accreditation of Laboratory Animal Care according to the “Principles of Laboratory Animal Care” of the National Institutes of Health.
# C57/blk6 mice = conditions: cited from earlier work
# LNCaP cells = assay: survival / lethality of CaP cells; format: cell-based, human; conditions: LNCaP (lack NQO1)
# PC-3 = assay: TUNEL apoptosis assay; format: cell-based, human; conditions: 10 μM, 4h, TUNEL 48h
smiles,measurement,setting,value
"CC1(C)CCC2=C(O1)c1ccccc1C(=O)C2=O [β-lap, β-Lapachone]",structural integrity of released β-lap (UV-Vis spectra),[1],maintained; also recorded: maintains its structural integrity
same,Apoptosis (%) After Drug Treatment,"LNCaP; LNCaP + DC (50 μM dicoumarol), TUNEL 48h",28%
same,Apoptosis (%) After Drug Treatment,"LNCaP; LNCaP + DVED, TUNEL 48h",24%
same,Apoptosis (%) After Drug Treatment,"LNCaP; LNCaP, TUNEL 48h post-treatment",28%
same,less apoptosis than DU-145 or PC-3 cells,LNCaP; β-lap-treated LNCaP,3 fold
same,lethality and apoptosis,CC-10 tumor cell lines,caused lethality and apoptosis
same,sensitivity to β-lap,"CC-10 tumor cell lines; 4 μM, 4 h",extremely sensitive
same,antitumor activity,[2],significant antitumor responses; also recorded: Significant antitumor activity
same,antitumor activity,[2]; listed as β-Lap,significant antitumor activity
same,antitumor responses,"[2]; 65 and 70 mg/kg i.p. every other day, 10 doses",Significant antitumor responses
same,cytotoxic effects,[3],No cytotoxic effects
same,apoptosis,[4],80-90%
same,apoptosis,[5],< 5%
same,maximum tolerated dose (MTD),athymic nude mice; 18-20 gm athymic nude mice,80 mg/kg
same,greater bioavailability in vivo than in previous studies,athymic nude mice; HP-β-CD complex MTD vs lipiodol LD50,~3 fold
same,sensitivity to β-lap,L1C2 cells,extremely sensitive
same,sensitivity to β-lap,[6],extremely sensitive
same,lethality and apoptosis,A549 NSCLC cells,caused lethality and apoptosis
same,lethality,"DU-145 cells; DU-145, 4 μM β-lap",> 95%
same,survival,"DU-145 cells; DU-145, 4 μM β-lap with 50 μM dicoumarol",> 95%
same,sensitivity to β-lap,"DU-145 cells; DU-145, absence of IR",sensitive
same,Apoptosis (%) After Drug Treatment,DU-145; DU-145 + DC (50 μM dicoumarol),0.12%
same,Apoptosis (%) After Drug Treatment,DU-145; DU-145 + DVED,76%
same,Apoptosis (%) After Drug Treatment,DU-145; DU-145,71%
same,greater bioavailability in vivo compared to previous studies,C57Blk/6 mice,~3 fold
same,LD50,C57/blk6 mice; Cremophor as vehicle,> 150 mg/kg
same,LD50,"C57/blk6 mice; lipiodol, C57/blk6 mice",> 150 mg/kg
same,sensitivity to β-lap,LNCaP cells,resistant
same,Apoptosis (%) After Drug Treatment,PC-3; PC-3 + DC (50 μM dicoumarol),0.04%
same,Apoptosis (%) After Drug Treatment,PC-3; PC-3 + DVED,91%
same,Apoptosis (%) After Drug Treatment,PC-3; PC-3,82%
